Experimental data taken from patent publication US12522582B2 (Gilead Sciences, Inc., priority 2022, dated 2026).
Read-outs that look alike come from different tables or passages of the source.

Test system: HSV-2 virus (MS strain)
Assay: HSV-2 Cellomics Assay (immunofluorescence of HSV protein gD in infected ARPE-19 cells)
Settings: Human alphaherpesvirus 2, ARPE-19, 16 h
[1] = read-out: EC50-HSV2-10% Human Serum

Protocol: Compounds were tested for their ability to inhibit HSV-2 replication by monitoring the expression of the HSV protein gD using a high-throughput immunofluorescence-based assay. 10-dose, 3-fold serial dilutions of compounds were prepared at starting concentrations of 0.2 or 2 mM in 100% DMSO. […] The final starting concentration in the assay was either 1 or 10 μM. DMSO (no compound) and pritelivir were included on each microplate as negative and positive controls, respectively.
Prior to confluence, cells were transferred to a centrifuge tube and spun for 5 minutes at 1000 rpm. Cells were resuspended in assay medium (DMEM/F-12 Glutamax, 2% FBS, 1% Penicillin-Streptomycin) and counted. Cell density was adjusted to 150,000 cells/ml and infected with HSV-2 virus (MS strain, ATCC cat #VR-540) at a MOI of 0.06 in a 50 ml conical tube for 1 hour under constant rocking. Cells were then spun for 5 minutes at 1000 rpm and the media replaced with assay medium containing either 2% FBS or 10% human serum (EMD Millipore cat #S1-100 ML). 50 μl of the infection suspension were added into microplate wells that were pre-spotted with compounds (7,500 cells per well). Plates were incubated for 16 hours at 37° C.
After a 30-minute incubation at room temperature, plates were washed 4 times with 100 μl/well of PBS using a Biotek plate washer. […] Plates were washed 4 times again and 50 μl of DPBS were added to all wells prior to sealing the plates with a black adhesive seal. Fluorescence was measured on a Cellomics plate reader.
Data analysis was carried out using the Thermo Scientific HCS Studio software. Briefly, cells were identified using the DAPI nuclear stain and thresholds were set to filter cells out based on shape and size. A second threshold based on green fluorescence intensity (detection of HSV-2 gD) was set to identify HSV-2 infected cells. Data was reported as the average fluorescence intensity of HSV-2 infected cells.

Row | SMILES | EC50 [1] | EC50 (read-out: EC50-HSV2-FBS)
1 | CCC1Cc2cc(F)c(S(=N)(=O)O)cc2N1C(=O)[C@@H]1Cc2ccc(-c3ccccn3)cc2C1 (mixture of isomers) [Example 112] | 0.579 µM | 0.081 µM
2 | CC1c2cc(-c3ccccn3)ccc2CC1C(=O)N1CCc2ccc(S(N)(=O)=O)cc21 (stereo not shown) [Example 95, 1-(1-methyl-6-(pyridin-2-yl)-2,3-dihydro-1H-indene-2-carbonyl) indoline-6-sulfonamide] | ≥ 25 µM | 2.85 µM
3 | NS(=O)(=O)c1ccc2c(c1)N(C(=O)C1Cc3cc(F)c(-c4ccccn4)cc3C1)CC2 (stereo not shown) [Example 9] | 2.6 µM | 0.105 µM
4 | C[C@H]1CN(C(=O)[C@@H]2Cc3ccc(-c4ccccn4)cc3C2)c2cc(S(N)(=O)=O)ccc21 [Example 107, (R)-3-methyl-1-((R)-5-(pyridin-2-yl)-2,3-dihydro-1H-indene-2-carbonyl)indoline-6-sulfonamide] | ≥ 25 µM | 0.095 µM
5 | C[C@H]1Cc2ccc(S(N)(=O)=O)cc2N1C(=O)C1Cc2cc(-c3ccccn3)ccc2O1 (stereo partly shown) [Example 56] | 2.22 µM | 0.255 µM
6 | C[C@@H]1Cc2cc(F)c(S(N)(=O)=O)cc2N1C(=O)[C@H]1Cc2ccc(-c3ccccn3)cc2C1 [Example 141, (R)-5-fluoro-2-methyl-1-((S)-5-(pyridin-2-yl)-2,3-dihydro-1H-indene-2-carbonyl)indoline-6-sulfonamide] | 2.63 µM | 0.293 µM
7 | NS(=O)(=O)c1ccc2c(c1)N(C(=O)C1Cc3ccc(-c4ccccn4)c(Cl)c3C1)CC2 (stereo not shown) [Example 11] |  | 7.66 µM
8 | NS(=O)(=O)c1ccc2c(c1)N(C(=O)[C@@H]1Cc3ccc(-c4ncccn4)cc3C1)CC2 [Example 133, (R)-1-(5-(pyrimidin-2-yl)-2,3-dihydro-1H-indene-2-carbonyl)indoline-6-sulfonamide] | 6.13 µM | 0.102 µM
9 | NS(=O)(=O)c1ccc2c(c1)N(C(=O)C1Cc3cc(Cl)c(-c4ccccn4)cc3C1)CC2 (stereo not shown) [Example 12] |  | 5.04 µM
10 | NS(=O)(=O)c1cc2c(cc1Br)CCN2C(=O)C1Cc2ccc(-c3ccccn3)cc2C1 (stereo not shown) [Example 110, 5-Bromo-1-(5-(pyridin-2-yl)-2,3-dihydro-1H-indene-2-carbonyl)indoline-6-sulfonamide] | ≥ 25 µM | 0.026 µM
11 | NS(=O)(=O)c1ccc2c(c1)N(C(=O)C1Cc3ccc(-n4cncn4)cc3C1)CC2 (stereo not shown) [Example 79, 1-(5-(1H-1,2,4-triazol-1-yl)-2,3-dihydro-1H-indene-2-carbonyl)indoline-6-sulfonamide] |  | 2.06 µM
12 | C[C@@H]1CN(C(=O)[C@H]2Cc3cc(-c4ccccn4)ccc3[C@@H]2C)c2cc(S(N)(=O)=O)c(F)cc21 (single isomer, unassigned) [Example 105] | 0.251 µM | 0.045 µM
13 | NS(=O)(=O)c1cc(Cl)c2c(c1)N(C(=O)C1Cc3ccc(-c4ccccn4)cc3C1)CC2 (stereo not shown) [Example 7] | ≥ 25 µM | 0.062 µM
14 | C[C@@H]1CN(C(=O)[C@H]2Cc3cc(-c4ccccn4)c(F)cc3O2)c2cc(S(N)(=O)=O)c(F)cc21 [Example 136, (S)-5-fluoro-1-((R)-6-fluoro-5-(pyridin-2-yl)-2,3-dihydrobenzofuran-2-carbonyl)-3-methylindoline-6-sulfonamide] | 2.22 µM | 0.0896 µM
15 | COc1cccc(-c2ccc3c(c2)CC(C(=O)N2CCc4ccc(S(N)(=O)=O)cc42)C3)n1 (stereo not shown) [Example 77] | 10.5 µM | 0.121 µM
16 | NS(=O)(=O)c1cc(F)c2c(c1)N(C(=O)C1Cc3ccc(-c4ccccn4)cc3C1)CC2 (stereo not shown) [Example 6] | ≥ 25 µM | 0.072 µM

Row | SMILES | EC50 [1] | EC50 (read-out: EC50-HSV2-FBS)
17 | C[C@@H]1c2cc(F)c(S(N)(=O)=O)cc2N(C(=O)[C@@H]2Cc3ccc(-c4ccccn4)cc3C2)[C@H]1C [Example 47, (2S,3R)-5-fluoro-2,3-dimethyl-1-((R)-5-(pyridin-2-yl)-2,3-dihydro-1H-indene-2-carbonyl)indoline-6-sulfonamide] | 3.66 µM | 0.423 µM
18 | CC1CN(C(=O)[C@H]2Cc3cc(-c4ccccn4)ccc3[C@@H]2C)c2cc(S(N)(=O)=O)ccc21 (stereo partly drawn) [Example 102, 3-methyl-1-((1R,2S)-1-methyl-5-(pyridin-2-yl)-2,3-dihydro-1H-indene-2-carbonyl) indoline-6-sulfonamide] | 0.905 µM | 0.16 µM
19 | NS(=O)(=O)c1ccc2c(c1)N(C(=O)C1Cc3ccc(-c4ccccc4)cc3C1)CC2 (stereo not shown) [Example 69, 1-(5-phenyl-2,3-dihydro-1H-indene-2-carbonyl) indoline-6-sulfonamide] | ≥ 25 µM | 0.119 µM
20 | C[C@H]1Cc2cc(Cl)c(S(N)(=O)=O)cc2N1C(=O)[C@@H]1Cc2ccc(-c3ccccn3)cc2C1 [Example 59, (S)-5-chloro-2-methyl-1-((R)-5-(pyridin-2-yl)-2,3-dihydro-1H-indene-2-carbonyl)indoline-6-sulfonamide] | ≥ 10 µM | 0.385 µM
21 | NS(=O)(=O)c1ccc2c(c1)N(C(=O)C1Cc3ccc(-c4cncc(F)n4)cc3C1)CC2 (stereo not shown) [Example 18] |  | 0.18 µM
22 | C[C@@H]1CN(C(=O)[C@@H]2Cc3ccc(-c4ccccn4)cc3C2)c2cc(S(N)(=O)=O)ccc21 [Example 108, (S)-3-methyl-1-((R)-5-(pyridin-2-yl)-2,3-dihydro-1H-indene-2-carbonyl)indoline-6-sulfonamide] |  | 0.285 µM
23 | NS(=O)(=O)c1ccc2c(c1)N(C(=O)[C@H]1Cc3ccc(-c4ccccc4F)cc3C1)CC2 [Example 82, (S)-1-(5-(2-fluorophenyl)-2,3-dihydro-1H-indene-2-carbonyl)indoline-6-sulfonamide] |  | 8.04 µM
24 | NS(=O)(=O)c1cc2c(cc1F)CCN2C(=O)C1Cc2cc(-c3ccccn3)cc(F)c2C1 (stereo not shown) [Example 13] | ≥ 10 µM | 0.25 µM
25 | NS(=O)(=O)c1ccc2c(c1)N(C(=O)C1Cc3ccc(-c4ccsn4)cc3C1)CC2 (stereo not shown) [Example 24] | ≥ 25 µM | 0.019 µM
26 | NS(=O)(=O)c1ccc2c(c1)N(C(=O)[C@@H]1Cc3ccc(-c4cccc5ccccc45)cc3C1)CC2 [Example 134, (R)-1-(5-(naphthalen-1-yl)-2,3-dihydro-1H-indene-2-carbonyl)indoline-6-sulfonamide] | 3.1 µM | 0.231 µM
27 | NS(=O)(=O)c1ccc2c(c1)N(C(=O)C1Cc3ccc(-c4ccccn4)cc3C1)CC2 (stereo not shown) [Example 71, 1-(5-(pyridin-2-yl)-2,3-dihydro-1H-indene-2-carbonyl) indoline-6-sulfonamide] | ≥ 25 µM | 0.03 µM
28 | NS(=O)(=O)c1ccc2c(c1)N(C(=O)C1Cc3ccc(-c4nccs4)cc3C1)CC2 (stereo not shown) [Example 20] |  | 0.091 µM
29 | CC[C@H]1Cc2cc(F)c(S(N)(=O)=O)cc2N1C(=O)[C@@H]1Cc2ccc(-c3ccccn3)cc2C1 [Example 114] | 0.926 µM | 0.128 µM
30 | Cc1csc(-c2ccc3c(c2)CC(C(=O)N2CCc4ccc(S(N)(=O)=O)cc42)C3)n1 (stereo not shown) [Example 22] |  | 0.048 µM
31 | C[C@H]1c2ccc(-c3ccccn3)cc2C[C@@H]1C(=O)N1C[C@H](C(F)(F)F)c2cc(F)c(S(N)(=O)=O)cc21 [Example 139, (R)-5-fluoro-1-((1R,2S)-1-methyl-5-(pyridin-2-yl)-2,3-dihydro-1H-indene-2-carbonyl)-3-(trifluoromethyl)indoline-6-sulfonamide] | 1.71 µM | 0.0742 µM
32 | COc1nc(-c2ccc3c(c2)CC(C(=O)N2CCc4ccc(S(N)(=O)=O)cc42)C3)cs1 (stereo not shown) [Example 26] |  | 0.131 µM
